The text below walks through data of patent publication US10905761B2, “Use of a lipopeptide or lipoprotein as an adjuvant in therapeutic or prophylactic vaccinations” (HELMHOLTZ-ZENTRUM FUER INFEKTIONSFORSCHUNG GMBH, priority 2002, dated 2021).

Entries after “also recorded” stand apart in the source; their conditions may differ. No end group written: not given here. Some results are limits rather than exact numbers.

The test system of data set [1] is BALB/c (H-2d) mice. Kind of data set: Kinetics of β-gal-specific IgG responses in sera of mice immunized i.n. or i.p. (Example 4). Type of data set: in vivo. Here is the method: Groups of animals (n=5) were immunized either i.n. (A) or i.p. (B) with 50 μg of β-gal ( ), β-gal plus 10 μg of CTB ( ), β-gal plus 0.5 μg of MALP-2 ( ) or pure buffer solution ( ). The days of the immunizations (day 0, 14 and 21) are marked by arrows. The results are shown as the reciprocal log2 of the geometric endpoint titer, and the SEM […] is indicated by means of vertical lines.
Six- to eight-week old female BALB/c (H-2d) mice were purchased from Harlan Winkelmann GmbH (Borchen, Germany) and treated in accordance with local and EU directives. Groups each of 5 mice were immunized on day 1, 14 and 21 either with 40 μg of pure β-galactosidase (Boehringer, Mannheim, Germany) with admixture of 0.5 μg of synthetic MALP-2 or 10 μg of cholera toxin B subunit (CTB; ICN Biomedicals Inc., Ohio) as standard adjuvant. For intranasal administration (i.n.), 10 μl were administered into each nostril, while for the i.p. injection β-galactosidase was resuspended with or without MALP-2 in 400, 100 or 100 μl of PBS. Serum samples were taken at various times (day 0, 13, 20 and 30) and stored at −20° C. until the β-galactosidase-specific antibodies were determined. Nunc-Immuno MaxiSorp assay plates with 96 wells (Nunc, Roskilde, Denmark) were coated with 100 μl of β-gal (Boehringer, Mannheim, Germany) with 5 μg/ml in 0.05 M […] (pH 8.2) per well. Serial two-fold dilutions of the sera or lavages in PBS with 1% BSA and 0.05% Tween-20 were added (100 μl/well) and the plates were incubated at 37° C. for 24 hours. After rinsing, biotinylated γ chain-specific goat anti-mouse IgG (Sigma Chemie, Deisenhofen, Germany) was added, and the plates were incubated at 37° C. for a further hour. After rinsing four times, 100 μl of peroxidase-conjugated streptavidin (Pharmingen) were added to the […], and the plates were incubated at 37° C. for 30 minutes. After rinsing four times, the reactions were developed by means of ABTS in 0.1 M citrate-phosphate buffer (pH 4.35) which contained 0.01% H2O2.

Data set [2] relates to BALB/c (H-2d) mice. Kind of data set: β-Galactosidase-specific IgA in lung and vaginal lavages of mice immunized i.n. (Example 5). Type of data set: in vivo. Here is the method:
The results are shown as percentage of β-galactosidase-specific IgA in relation to the total IgA present. The SEM is indicated by vertical lines.
The mice were sacrificed on day 31, and the final samples were taken. Vaginal and lung lavages were obtained by rinsing the organs with 1 ml of PBS supplemented by 50 mM EDTA, 0.1% BSA and 10 mM PMSF. The lavages were then centrifuged in order to remove tissue detritus (10 min at 3000×g) and the remaining liquid was stored at −20° C. In order to determine the total IgA concentration in the rinsings from lung and vagina, serial dilutions of the corresponding samples were incubated in microtiter plates, these plates having previously been coated with goat anti-mouse IgA (Sigma Chemie) as capture antibody (100 μl/well). Serial dilutions of purified mouse IgA (Sigma Chemie) were used to produce a standard plot.

Data set [3] relates to BALB/c (H-2d) mice. Put plainly: Serum IgE level after immunization (capture ELISA, Example 6). Type of data set: in vivo. The conditions noted are these: MALP-2 i.p. or via the mucous membranes; day 28. How it is done: Mice were immunized intraperitoneally (i.p.) and intranasally (i.n.) either with pure β-galactosidase (40 μg), exclusively MALP-2 or β-galactosidase mixed with MALP-2 (0.5 μg) on days 0, 7 and 14. On day 28 after the first immunization, serum samples were obtained, and the IgE levels were determined by means of a capture ELISA. The results are shown as IgE concentrations (ng/ml).
To determine the total IgE concentration in the serum of immunized and control animals, serial dilutions of the appropriate samples were incubated in microtiter plates which had previously been coated with anti-mouse IgE (100 μl/well) as capture antibody. After blocking with PBS with 1% BSA and 0.05% Tween-20 at room temperature for two hours, a 1:100 dilution of the serum in PBS-Tween was added (100 μl/well) and the plates were incubated at 37° C. for one hour. After rinsing, biotinylated anti-mouse IgE was added and the plates were incubated at 37° C. for a further hour. After rinsing four times, 100 μl of peroxidase-conjugated streptavidin (Pharmingen) were put in the wells, and the plates were incubated at 37° C. for 30 minutes. After rinsing four times, the reactions were developed by means of ABTS in 0.1 M citrate-phosphate buffer (pH 4.35) and a content of 0.01% H2O2. Serial dilutions of purified mouse IgE were used to produce a standard plot.
On the technique in general: ELISA stands for enzyme-linked immunosorbent assay.

Data set [4] concerns BALB/c (H-2d) mice. Put plainly: β-Galactosidase-specific T-cell proliferation of spleen and regional lymph node cells of immunized mice (Example 7). Type of data set: in vivo. How it is done: The cells were restimulated in vitro with various concentrations of soluble β-galactosidase for four days. The results are shown as average cpm subtracted from the background values for unstimulated cells from groups of three. The SEM is depicted by vertical lines.
Lymph nodes located below the lower jaw and the spleens were removed and put together for the analysis of the cellular immune responses. The cells were grown in RPMI 1640 supplemented by 10% fetal calf serum, 10 U/ml penicillin, 50 μg/ml streptomycin, 5×10^−5 M 2-mercaptoethanol and 1 mM L-glutamine (GIBCO BRL, Karlsruhe, Germany) and stored at 37° C. in a moist atmosphere with 5% CO2. The suspensions of lymph node and spleen cells were adjusted to 5×10^6 cells/ml in complete medium and put in a flat-bottomed 96-well microtiter plate (Nunc) with 100 μl/well, and the plates were incubated in the presence of various concentrations of soluble β-galactosidase for 4 days. Each concentration was tested in groups of three. During the last 18 hours of the incubation, 1 ρCi of [^3H]thymidine (Amersham International, Freiburg, Germany) was added to each well. The cells were then harvested on filter paper (Filtermat A; Wallac, Freiburg, Germany) using a cell harvester (Inotech, Wohlen, Switzerland), and the amount of incorporated [^3H]thymidine in the DNA of the proliferated cells was determined with the aid of a […] (Wallac 1450, Micro-Trilux). The results have been shown as the arithmetic mean of the uptake of [^3H]thymidine in cpm.

For the next data set, the system named is immunized animals. Put plainly: Tolerability and anti-adjuvant antibodies in immunized animals. The note with it: after intranasal administration of MALP-2 as adjuvant.
Where [5] appears, read: 0.5 μg MALP-2 versus 10 μg CTB, i.n.

For “S-[2,3-bispalmitoyloxypropyl]cysteinyl-GNNDESNISFKEK ({S‑(2,3-bispalmitoyloxypropyl)Cys}-GNNDESNISFKEK) [MALP-2]”, in the data set on BALB/c (H-2d) mice [1] (setting [5]), the “kinetics and overall efficacy of antibody responses compared with 10 μg CTB” value was “very similar”. Besides, the “increase of β-galactosidase-specific IgG serum titers” value in the data set on BALB/c (H-2d) mice [1] (i.p., 0.5 μg per animal per dose, versus pure β-galactosidase) worked out at 100 fold. The “titers of specific IgG at the end of the immunization protocol” value with BALB/c (H-2d) mice [1] (β-galactosidase with 0.5 μg MALP-2 i.n.) is “above 500,000”. Besides, the “titers of specific IgG in serum after a single dose” value in the data set on BALB/c (H-2d) mice [1] (β-galactosidase with 0.5 μg MALP-2 i.n., single dose) is recorded as > 60,000. Further, the “levels of β-galactosidase-specific antibodies in the mucous membranes, MALP-2 versus CTB” value in the data set with BALB/c (H-2d) mice [2] (setting [5]) is “No statistically significant differences”. In the data set with BALB/c (H-2d) mice [2] (MALP-2 as adjuvant, i.n.), the “antigen-specific IgA, based on the total IgA, in lung lavages” value amounted to 36% and the “antigen-specific IgA, based on the total IgA, in vaginal lavages” value was 23%. Moreover, in the data set on BALB/c (H-2d) mice [2] (i.n. immunization, day 31), the “β-galactosidase-specific IgA in lung rinsings” value is listed as “significant increase” and the “β-galactosidase-specific IgA in vaginal rinsings” value is on record as “significant concentrations”. Further, the “serum IgE content” value in the data set on BALB/c (H-2d) mice [3] is on record as “does not lead to an increase”. In addition, in the data set with BALB/c (H-2d) mice [4] (0.5 μg MALP-2 versus 10 μg CTB, i.n., p<0.05), the “T-cell proliferation / cellular response compared with CTB as adjuvant” value is recorded as “statistically significant (p<0.05) increase in T-cell proliferation; also recorded: distinctly higher proliferation”. In addition, the “proliferation of lymph node and spleen cells after in vitro restimulation with β-galactosidase” value in the data set with BALB/c (H-2d) mice [4] (i.n. immunization, day 31) is on record as “efficient proliferation response”. Besides, in the data set with BALB/c (H-2d) mice [4] (i.p. immunization, day 31), the “proliferation of spleen cells after in vitro restimulation with β-galactosidase” value is listed as “further increase in proliferation”. In addition, in the data set with immunized animals, the anti-MALP-2 antibodies result is on record as “No anti-MALP-2 antibodies were detectable”.
